Read-outs that look alike come from different tables or passages of the source.
Experiments:
OR6 cells = experiment: cell count by trypan blue staining, OR6 cells; type: cell-based, human; details: drug at the concentration corresponding to the EC50 value
[1] = test system: HCV replicon of Con1 strain; details: cited from earlier work
[2] = test system: full-length HCV RNA replication in OR6 cells; experiment: microbe, parasite or virus in culture; type: cell-based, HCV-O strain (genotype 1b)
Source text: (§1) Renilla luciferase was quantified by collecting cells using a Renilla Luciferase Assay System (Promega) according to the manufacturer's experiment protocol.
An OR6-cell assay system was used as a control.

[3] = test system: full-length HCV RNA replication in ORL8 cells; experiment: microbe, parasite or virus in culture; type: cell-based, HCV-O strain (genotype 1b); details: for EC50: Hepatitis C virus
Description: as §1
(§2) Luciferase activity of each cell line was then measured at hour 24, 48, and 72. […] SD values were calculated based on the results from three samples at each point. […]

[4] = test system: full-length HCV RNA replication in ORL11 cells; experiment: microbe, parasite or virus in culture; type: cell-based, HCV-O strain (genotype 1b)
Description: as §1, §2

ORL8 cells = experiment: cell count by trypan blue staining, ORL8 cells; type: cell-based, human; details: drug at the concentration corresponding to the EC50 value
ORL11 cells = experiment: cell count by trypan blue staining, ORL11 cells; type: cell-based, human
[5] = test system: ORL8, ORL11, and OR6 cells; experiment: cell count / cytotoxicity check, cell lines not itemised; details: at a concentration of 12.5 μM
Description: In order to ascertain that the decrease in luciferase activity in response to the addition of ribavirin was not due to the cell growth inhibition or cytotoxicity by ribavirin, the cells were cultured under the same conditions used for the luciferase assay, and counted using a trypan blue staining technique. The effect of adding ribavirin in the concentration corresponding to the EC50 value of each cell line was examined.
FLV (Calbiochem, 344095) was used.

[6] = in vivo; cited from earlier work
[7] = test system: full-length HCV RNA replication in OR6 cells; details: OR6 cell assay system (Naka et al., BBRC 2005); cited from earlier work
[8] = ORL11 cells, drug at the concentration corresponding to the EC50 value, trypan blue
[9] = ORL8 cells, luciferase activity after 72 hours, read-out: EC50
[10] = Hepatitis C virus, 72 h, luciferase activity after 72 hours, read-out: EC50
[11] = Hepatitis C virus, OR6 cells, luciferase activity after 72 hours, read-out: EC50
[12] = OR6 cells, drug concentrations based on the EC50 values
[13] = ORL8 cells, drug concentrations based on the EC50 values
[14] = drug concentrations based on the EC50 values

CC(=O)Oc1ccccc1C(=O)O [ASA, Acetylsalicylic Acid]
cell count over the control cells (OR6 cells): 51%
EC50 ([1]; HCV replicons of Con1 strain (Trujillo-Murillo et al.)): 4000 µM
EC50 ([2]; Hepatitis C virus, OR6, 72 h): 2160 µM
EC50 ([3]; ORL8, 72 h): 1330 µM
EC50 ([4]; Hepatitis C virus, 72 h, luciferase activity after 72 hours): 1170 µM
cell count over the control cells (ORL8 cells): 53%
cell count over the control cells (ORL11 cells; [8]): 72%

NC(=O)c1ncn([C@@H]2O[C@H](CO)[C@@H](O)[C@H]2O)c1O [Mizoribine]
luciferase activity (value relative to no drug) ([2]; OR6 cells, at 200 μM, after 72 hours): above 50%
EC50 [3, 9]: 58.8 µM
EC50 [4, 10]: 76.5 µM

COC1=C2C[C@@H](C)C[C@H](OC)[C@H](O)[C@@H](C)/C=C(\C)[C@H](OC(N)=O)[C@@H](OC)/C=C\C=C(/C)C(=O)NC(=CC1=O)C2=O [Geldanamycin]
EC50 [2, 11]: 0.0021 µM
EC50 [3, 9]: 0.00257 µM
EC50 [4, 10]: 0.00331 µM

CC[C@H](C)C(=O)O[C@H]1C[C@@H](C)C=C2C=C[C@H](C)[C@H](CC[C@@H]3C[C@@H](O)CC(=O)O3)[C@H]21 [LOV, Lovastatin]
EC50 [2, 11]: 3 µM
EC50 [3, 9]: 1.49 µM
EC50 [4, 10]: 1.04 µM

O=C(O)C[C@H](O)C[C@H](O)/C=C/c1c(C2CC2)nc2ccccc2c1-c1ccc(F)cc1 [PTV, Pitavastatin]
cell count over the control cells (OR6 cells): ≥ 80%
EC50 [2, 11]: 0.46 µM
luciferase activity after treatment (single agent or combined use) [2, 12]: 56%
EC50 [3, 9]: 0.45 µM
luciferase activity after treatment (single agent or combined use) [3, 13]: 43%
EC50 [4, 10]: 0.16 µM
luciferase activity after treatment (single agent or combined use) [4, 14]: 49%
cell count over the control cells (ORL8 cells): ≥ 80%
cell count over the control cells (ORL11 cells; [8]): ≥ 80%

NC(=O)c1ncn([C@@H]2O[C@H](CO)[C@@H](O)[C@H]2O)n1 [Ribavirin]
cell count over the control cells (OR6 cells): ≥ 98%
cytotoxicity [5]: not recognized
blood concentrations [6]: 10 to 14 µM
EC50 [7]: 76 µM
EC50 [2, 11]: 119 µM
luciferase activity after treatment (single agent or combined use) ([2]; OR6 cells, IFN-α at 0.25 IU/ml, ribavirin): 97%
EC50 [3, 9]: 10.1 µM
luciferase activity after treatment (single agent or combined use) ([3]; ORL8 cells, IFN-α at 0.25 IU/ml, ribavirin): 35%
EC50 [4, 10]: 15.9 µM
luciferase activity after treatment (single agent or combined use) ([4]; IFN-α at 0.25 IU/ml, ribavirin at 12.5 W): 49%
cell count over the control cells (ORL8 cells): ≥ 98%
cell count over the control cells (ORL11 cells; [8]): ≥ 98%

CCCCCCC(=O)CCCCCC/C=C/C[C@@H](O)[C@H](O)[C@@](N)(CO)C(=O)O [Myriocin]
cell count over the control cells (OR6 cells): ≥ 91%
EC50 ([1]; Con1 strain, analyzed 72 hours after the addition of the drug): 0.0058 µM
luciferase activity (relative to no drug) ([2]; OR6 cells, at 5 nM to 40 nM, after 72 hours, EC50 not calculable): below 60%
EC50 [3, 9]: 0.00516 µM
EC50 [4, 10]: 0.00362 µM
cell count over the control cells (ORL8 cells): 83.5%
cell count over the control cells (ORL11 cells; [8]): ≥ 91%

CC(C)n1c(/C=C/C(O)CC(O)CC(=O)O)c(-c2ccc(F)cc2)c2ccccc21 (stereo not drawn) [FLV, Fluvastatin]
cell count over the control cells (OR6 cells): ≥ 97%
EC50 ([2]; Hepatitis C virus, OR6 cells, FLV from a different manufacturer (LKT laboratories Inc., F4482), read-out: EC50): 1.44 µM
EC50 [2, 11]: 1.22 µM
luciferase activity after treatment (single agent or combined use) [2, 12]: 55%
EC50 ([3]; ORL8 cells, FLV from a different manufacturer (LKT laboratories Inc., F4482), read-out: EC50): 0.31 µM
EC50 [3, 9]: 0.28 µM
luciferase activity after treatment (single agent or combined use) [3, 13]: 59%
EC50 ([4]; FLV from a different manufacturer (LKT laboratories Inc., F4482), read-out: EC50): 0.14 µM
EC50 [4, 10]: 0.32 µM
EC50 ([4]; Hepatitis C virus, FLV from a different manufacturer (LKT laboratories Inc., F4482), read-out: EC50): 0.11 µM
luciferase activity after treatment (single agent or combined use) [4, 14]: 51%
cell count over the control cells (ORL8 cells): ≥ 97%
cell count over the control cells (ORL11 cells; [8]): ≥ 97%

CCC(C)(C)C(=O)O[C@H]1C[C@@H](C)C=C2C=C[C@H](C)[C@H](CC[C@@H]3C[C@@H](O)CC(=O)O3)[C@H]21 [SMV, Simvastatin]
EC50 [2, 11]: 1.42 µM
EC50 [3, 9]: 0.28 µM
EC50 [4, 10]: 0.15 µM

B1: IFN-γ: interferon gamma (Sigma), pharmaceutical agent having an anti-HCV action (protein, UniProt P01579 24-161, looked up)
Interferon gamma: QDPYVKEAENLKKYFNAGHSDVADNGTLFLGILKNWKEESDRKIMQSQIVSFYFKLFKNFKDDQSIQKSVETIKEDMNVKFFNSNKKKRDDFEKLTNYSVTDLNVQRKAIHELIQVMAELSPAAKTGKRKRSQMLFRG
cell count over the control cells (OR6 cells): ≥ 90%
EC50 ([2]; OR6 cells, luciferase activity after 72 hours): 0.21 IU/ml
EC50 (50% effective drug concentration) ([3]; ORL8 cells, luciferase activity after 72 hours): 0.077 IU/ml
EC50 (50% effective drug concentration) ([4]; luciferase activity after 72 hours): 0.13 IU/ml
cell count over the control cells (ORL8 cells): ≥ 90%
cell count over the control cells (ORL11 cells): ≥ 90%
